Measurements as given in ChEMBL document CHEMBL1122903, “Synthesis, in vitro [3H]prazosin displacement, and in vivo activity of 3-aryl-4,5,6,7-tetrahydropyrazolo[4,3-c]pyridines, a new class of antihypertensive agents” (J Med Chem, 1985).

What was measured:
Rattus norvegicus [1] = test: Antihypertensive activity on spontaneously hypertensive rats when administered orally at a dose 50 mg/kg.; assay type: functional; conditions: route oral
[2] = target: T1, Adrenergic receptor alpha-1 (Rattus norvegicus, UniProt P15823+P23944+P43140); test: Ability to displace [3H]prazosin from postsynaptic alpha-1 adrenergic receptor of rat in vitro.; assay type: protein assay
T1 sequence (P15823 whole entry): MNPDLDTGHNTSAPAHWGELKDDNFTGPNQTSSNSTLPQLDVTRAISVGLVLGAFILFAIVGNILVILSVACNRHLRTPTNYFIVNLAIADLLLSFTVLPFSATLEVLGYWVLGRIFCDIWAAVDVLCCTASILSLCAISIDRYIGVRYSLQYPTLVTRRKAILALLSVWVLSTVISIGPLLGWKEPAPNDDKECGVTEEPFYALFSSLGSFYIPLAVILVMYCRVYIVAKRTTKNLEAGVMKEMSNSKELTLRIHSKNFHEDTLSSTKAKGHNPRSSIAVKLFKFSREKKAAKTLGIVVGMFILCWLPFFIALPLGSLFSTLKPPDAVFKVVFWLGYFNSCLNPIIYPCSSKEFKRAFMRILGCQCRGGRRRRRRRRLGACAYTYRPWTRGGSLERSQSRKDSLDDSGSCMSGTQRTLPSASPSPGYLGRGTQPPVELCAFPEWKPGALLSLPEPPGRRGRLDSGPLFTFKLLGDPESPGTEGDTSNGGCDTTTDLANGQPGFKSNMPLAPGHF
T1 sequence (P23944 whole entry): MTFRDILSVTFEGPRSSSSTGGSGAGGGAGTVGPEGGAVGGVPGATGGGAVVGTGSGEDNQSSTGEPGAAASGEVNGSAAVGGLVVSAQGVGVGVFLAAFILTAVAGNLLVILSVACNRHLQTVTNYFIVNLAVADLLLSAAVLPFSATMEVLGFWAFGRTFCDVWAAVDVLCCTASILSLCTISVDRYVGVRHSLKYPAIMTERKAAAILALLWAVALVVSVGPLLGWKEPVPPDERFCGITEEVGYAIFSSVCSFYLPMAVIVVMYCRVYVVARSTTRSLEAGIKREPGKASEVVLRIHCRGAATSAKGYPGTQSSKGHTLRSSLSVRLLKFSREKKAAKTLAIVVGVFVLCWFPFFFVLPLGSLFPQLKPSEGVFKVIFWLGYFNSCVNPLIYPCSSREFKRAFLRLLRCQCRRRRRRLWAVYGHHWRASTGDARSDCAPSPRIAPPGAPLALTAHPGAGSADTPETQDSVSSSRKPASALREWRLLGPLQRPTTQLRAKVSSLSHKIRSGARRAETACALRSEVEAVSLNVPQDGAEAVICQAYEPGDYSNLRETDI
T1 sequence (P43140 whole entry): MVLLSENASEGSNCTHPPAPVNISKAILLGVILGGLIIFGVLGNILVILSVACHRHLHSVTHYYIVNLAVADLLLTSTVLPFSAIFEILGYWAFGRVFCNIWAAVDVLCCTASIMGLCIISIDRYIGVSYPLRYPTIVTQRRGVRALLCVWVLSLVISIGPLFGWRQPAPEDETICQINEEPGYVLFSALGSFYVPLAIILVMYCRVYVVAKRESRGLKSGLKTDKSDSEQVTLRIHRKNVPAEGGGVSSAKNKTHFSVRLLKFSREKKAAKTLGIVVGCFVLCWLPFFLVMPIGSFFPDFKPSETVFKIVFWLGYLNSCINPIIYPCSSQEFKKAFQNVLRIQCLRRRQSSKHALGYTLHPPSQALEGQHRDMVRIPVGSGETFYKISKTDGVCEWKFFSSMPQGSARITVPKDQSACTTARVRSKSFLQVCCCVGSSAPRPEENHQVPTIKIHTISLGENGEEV

Rattus norvegicus [3] = test: Antihypertensive activity on spontaneously hypertensive rats, when administered orally at a dose 20 mg/kg; assay type: functional; conditions: route oral
Rattus norvegicus [4] = test: Antihypertensive activity on spontaneously hypertensive rats, when administered intravenously at a dose 10 mg/kg; assay type: functional; conditions: route intravenous

Structure (SMILES) | Delta p (Rattus norvegicus [1]) | Ki [2] | Delta p (Rattus norvegicus [3]) | Delta p (Rattus norvegicus [4])
CCCCN1CCc2c(c(-c3ccc(F)cc3)nn2Cc2ccccc2)C1.Cl | -16% | 0.119 µM |  | 
CC(c1ccccc1)n1nc(-c2ccc(F)cc2)c2c1CCNC2.CS(=O)(=O)O (stereo unspecified) |  | 0.0072 µM | -15% | 
Fc1ccc(-c2[nH]nc3c2CNCC3)cc1 | -37% | 0.0692 µM |  | 
CCN1CCc2n[nH]c(-c3ccc(F)cc3)c2C1.O=C(O)CC(=O)O | 0% | 3.4 µM |  | 
Cn1nc(-c2cccc(Cl)c2)c2c1CCNC2 | 0% | > 3 µM |  | 
CN1CCc2n[nH]c(-c3ccc(F)cc3)c2C1 |  | 0.507 µM | 0% | 
CN1CCc2c(c(-c3ccc(F)cc3)nn2CCc2ccccc2)C1 | 0% | 0.0403 µM |  | 
CS(=O)(=O)O.Fc1ccc(-c2nn(CCCc3ccccc3)c3c2CNCC3)cc1 |  | 0.0129 µM |  | -37%
Cc1ccc(S(=O)(=O)O)cc1.Cn1nc(-c2ccccc2F)c2c1CCNC2 | 0% | > 3 µM |  | 
CN1CCc2c(c(-c3ccc(F)cc3)nn2-c2ccc(F)cc2)C1.CS(=O)(=O)O |  | 0.206 µM | 0% | 
CCN1CCc2n[nH]c(-c3ccc(C)cc3)c2C1.O=C(O)CC(=O)O | 0% | 0.35 µM |  | 
CC(C)N1CCc2c(c(-c3ccc(F)cc3)nn2Cc2ccccc2)C1 | -20% | 0.0976 µM |  | 
Fc1ccccc1-c1[nH]nc2c1CNCC2 | 0% | > 3 µM |  | 
CN1CCc2n[nH]c(-c3ccc(Cl)cc3)c2C1.O=C(O)CC(O)(CC(=O)O)C(=O)O | 0% | 2 µM |  | 
N#Cc1ccc(-c2[nH]nc3c2CNCC3)cc1 | 0% | > 3 µM |  | 
CS(=O)(=O)O.Cn1nc(-c2ccccc2)c2c1CCNC2 | 0% | 3.29 µM |  | 
CCCCn1nc(-c2ccc(F)cc2)c2c1CCNC2.CS(=O)(=O)O |  | 0.0173 µM |  | -30%
Cl.Cn1nc(-c2ccc(Cl)cc2)c2c1CCNC2 | -26% | 0.19 µM |  | 
CCCn1nc(-c2ccc(F)cc2)c2c1CCNC2.CS(=O)(=O)O | -33% | 0.0242 µM |  | 
CN1CCc2c(c(-c3ccc(F)cc3)nn2Cc2ccccc2)C1.CS(=O)(=O)O | -18% | 0.0212 µM |  | 
CC(c1ccccc1)n1nc(-c2ccc(F)cc2)c2c1CCN(C)C2.Cl (stereo unspecified) |  | 0.0081 µM | -15% | 
Cn1nc(-c2cccc(F)c2)c2c1CCNC2 | 0% | > 3 µM |  | 
Cl.Cl.c1ccc(-c2[nH]nc3c2CNCC3)cc1 | -18% | 0.49 µM |  | 
Cc1ccc(-c2[nH]nc3c2CN(C)CC3)cc1.Cc1ccc(S(=O)(=O)O)cc1 |  | 0.249 µM | 0% | 

Structure (SMILES) | Delta p (Rattus norvegicus [1]) | Ki [2] | Delta p (Rattus norvegicus [3]) | Delta p (Rattus norvegicus [4])
CC(C)n1nc(-c2ccccc2)c2c1CCNC2 | 0% | 1.1 µM |  | 
CCCCCn1nc(-c2ccc(F)cc2)c2c1CCNC2.CS(=O)(=O)O |  | 0.0087 µM | -20% | 
CCCCCCn1nc(-c2ccc(F)cc2)c2c1CCNC2.CS(=O)(=O)O | 0% | 0.013 µM |  | 
CCCn1nc(-c2ccc(F)cc2)c2c1CCN(C)C2.CS(=O)(=O)O | -25% | 0.0735 µM |  | 
CCCCCn1nc(-c2ccc(F)cc2)c2c1CCN(C)C2.CS(=O)(=O)O |  | 0.0183 µM | -21% | 
CCn1nc(-c2ccc(F)cc2)c2c1CCN(Cc1ccccc1)C2.CS(=O)(=O)O | -23% | 2.02 µM |  | 
COc1ccc(-c2[nH]nc3c2CNCC3)cc1OC | 0% | > 3 µM |  | 
CN1CCc2c(c(-c3ccc(F)cc3)nn2CCCc2ccccc2)C1.Cl | 0% | 0.0206 µM |  | 
Cc1ccc(-c2[nH]nc3c2CNCC3)cc1.Cl.Cl |  | 0.0922 µM | 0% | 
CCN1CCc2n[nH]c(-c3ccccc3)c2C1.Cl | 0% | 1.5 µM |  | 
CCCCn1nc(-c2ccc(F)cc2)c2c1CCN(C)C2.CS(=O)(=O)O | -18% | 0.0328 µM |  | 
CC(C)n1nc(-c2ccccc2)c2c1CCN(C)C2.CS(=O)(=O)O | 0% | 2.87 µM |  | 
Cl.Fc1ccc(-c2nn(-c3ccc(F)cc3)c3c2CNCC3)cc1 |  | 0.161 µM | 0% | 
Clc1cccc(-c2[nH]nc3c2CNCC3)c1 | 0% | > 3 µM |  | 
CS(=O)(=O)O.Fc1ccc(-c2nn(CCc3ccccc3)c3c2CNCC3)cc1 | -15% | 0.0403 µM |  | 
Cn1nc(-c2ccc(F)cc2)c2c1CCNC2 | 0% | 1.06 µM |  | 
Cl.Fc1ccc(-c2nn(Cc3ccccc3)c3c2CN(C2CCCC2)CC3)cc1 | -18% | 0.0424 µM |  | 
COc1ccc(-c2[nH]nc3c2CNCC3)cc1 | -15% | 0.448 µM |  | 
Cl.O=[N+]([O-])c1ccc(-c2[nH]nc3c2CNCC3)cc1 | 0% | > 3 µM |  | 
CCN1CCc2n[nH]c(-c3ccc(OC)cc3)c2C1 | 0% | > 3 µM |  | 
CCn1nc(-c2ccc(F)cc2)c2c1CCNC2.CS(=O)(=O)O |  | 0.0325 µM | -37% | 
CN1CCc2n[nH]c(-c3ccccc3)c2C1.O=C(O)CC(O)(CC(=O)O)C(=O)O | 0% | 1.3 µM |  | 
Fc1cccc(-c2[nH]nc3c2CNCC3)c1 | 0% | > 3 µM |  | 
CCCCCCn1nc(-c2ccc(F)cc2)c2c1CCN(C)C2.CS(=O)(=O)O | -16% | 0.0152 µM |  | 
